# In patent US5006554A, “Organotin compounds” (The United States of America as represented by the …, priority 1989, dated 1991):
# Key:
# [1] = Degradation on exposure to direct sunlight in quartz tubes (loss of compound after 48 h, GC MS); type: physicochemical; conditions: for loss of compound: exposure to direct sunlight, quartz tubes, seawater solutions, after 48 h; for stability in seawater relative to tributyltin bromide, presence of light: in words
# Experimental: Degradation tests of the compounds included making ethanol solutions of the organotin bromides that were prepared at a concentration of approximately 1 mg/cm^3. Aliquots of the ethanol solutions were added to either 3.5% sodium bromide (NaBr) containing 1% acetone or to filtered seawater to obtain approximately 1-5 ppm concentrations in the seawater. […] Aliquots (10 cm^3) of the solutions were extracted at timed intervals with 1 cm^3 hexane after acidification with 0.1 cm^3 concentrated hydrochloric acid (HCl). Samples were analyzed by GC MS.
# (§1) Half-lives of 33 days, 17 days and 16 days were estimated for tributyltin bromide, tri-3-butenyltin bromide and tri-1-butenyltin bromide in seawater, protected from UV light and held at a constant room temperature.
# [2] = Degradation in seawater protected from UV light at constant room temperature (half-life, GC MS); type: physicochemical; conditions: for stability in seawater relative to tributyltin bromide, absence of light: in words; for Half-life: protected from UV light, constant room temperature, estimated
# Experimental: Degradation tests of the compounds included making ethanol solutions of the organotin bromides that were prepared at a concentration of approximately 1 mg/cm^3. Aliquots of the ethanol solutions were added to either 3.5% sodium bromide (NaBr) containing 1% acetone or to filtered seawater to obtain approximately 1-5 ppm concentrations in the seawater. The sodium bromide (NaBr) solution was placed in 125 cm^3 quartz tubes and exposed to sunlight over 48 h. The seawater solutions were kept in closed 500 cm^3 polycarbonate jars in the laboratory. Aliquots (10 cm^3) of the solutions were extracted at timed intervals with 1 cm^3 hexane after acidification with 0.1 cm^3 concentrated hydrochloric acid (HCl). Samples were analyzed by GC MS.
# as §1
# [3] = tested on: Photobacterium phosphoreum NRRL B-11177; experiment: Microtox toxicity bioassay: reduction in light output by a luminescent bacterium; type: cell-based; conditions: relative to tributyltin bromide, from EC50
# Experimental: Relative toxicity of compounds was determined using a Microtox Toxicity Analyzer Model 2055, manufactured by Microbics Corporation, Carlsbad, Calif., USA. This bioassay measures the relative reduction in light output by a luminescent bacterium, Photobacterium phosphoreum NRRL B-11177, when exposed to a toxicant. The bacteria are provided in a convenient freeze-dried form by Microbics Corporation and are immediately activated by the addition of 1 cm^3 of distilled water.
# For Microtox testing, stock solutions of the compounds were prepared in 95% ethanol at approximately 1-2 mg/cm^3 Appropriate amounts of the ethanol solutions were added to 2% aqueous sodium chloride (NaCl) to achieve a workable concentration while keeping the ethanol concentration as low as possible. Typically, the ethanol concentration was about 0.05%.
# Serial dilutions of each compound for measurement were performed in the Microtox photometer/incubator at 15° C. Controls consist of triplicate 1 cm^3 portions of 2% sodium chloride and candidate toxics were prepared in and subsequently serially diluted in 2% sodium chloride, with a final volume of 1 cm^3 for each dilution. After a 5-minute period for temperature equilibration, 10 μl of rehydrated bacteria was added to each of the controls and the serial dilutions of the test compound. […]
# [4] = Stability and chemical reactivity of the butenyltin compounds (neat, in solvents, in reaction mixture); type: physicochemical; conditions: for stability / reactivity in the synthesis mixture: crude reaction mixture, synthesis side-products; for stability as neat compound and in inert solvents: inert solvents (also ethanol)
# Excerpt: Synthesis of the tetrabutenyltins presented no great difficulty as long as the Grignard reagent was present in large excess to assure complete alkylation. […] Under these conditions alkenyltin compounds were identified containing various numbers of […] groups in the mixture.
# The other two tributenyltin bromides were stable as neat compounds, in inert solvents and in ethanol for a reasonable length of time. Chemical reactivity appeared to follow the order allyl > vinyl > alkyl.
Compound,loss of compound [1],"stability in seawater relative to tributyltin bromide, presence of light [1]","stability in seawater relative to tributyltin bromide, absence of light [2]",Half-life [2] [days],factor by which less toxic than tributyltin bromide [3],stability / reactivity in the synthesis mixture [4],stability as neat compound and in inert solvents [4],order of chemical reactivity ([4]; allyl > vinyl > alkyl),stability / reactivity in the synthesis mixture ([4]; listed as Tri-2-butenyltin bromide),stability / reactivity in the synthesis mixture ([4]; listed as tri-2butenyltin bromide),stability sufficient for degradation and toxicity determinations ([4]; in words)
CCC=[CH][Sn]([Br])([CH]=CCC)[CH]=CCC [tri-1-butenyltin bromide],about 80%,less stable in seawater,less stable in seawater,16,about three,tended spontaneously to form black precipitates during solvent evaporation of the crude mixture,stable as neat compounds and in inert solvents,,,,
C=CC[CH2][Sn]([Br])([CH2]CC=C)[CH2]CC=C [tri-3-butenyltin bromide],~100%,less stable in seawater,less stable in seawater,17,six,tended spontaneously to form black precipitates during solvent evaporation of the crude mixture,stable as neat compounds and in inert solvents,"fell between tri-1-butenyltin bromide, containing vinylic carbons, and tributyltin bromide, the alkyl compound",,,
CC=C[CH2][Sn]([Br])([CH2]C=CC)[CH2]C=CC [tri-2-butenyltin bromide],,,,,,,,,so reactive with the synthesis side-products that it could not be isolated,highly reactive and therefore transient,too reactive for other than structural studies
"CCC[CH2][Sn]([Br])([CH2]CCC)[CH2]CCC [tributyltin bromide, reference compound]",about 15%,,,33,,,,,,,
